Laboratory results from paper PMC11674305, “Inhibition of Neural Crest Cell Migration by Strobilurin Fungicides and Other Mitochondrial Toxicants” (Cells, 2024).

Experiments:
neural crest cells (NCC) [1] = assay: Long-term transwell migration assay (18 h pre-exposure, 6 h migration); type: cell-based, human
Experimental: Magel et al. (2024): Inhibition of neural crest cells migration by strobilurin fungicides […]
Figure S11. Prolonged exposure of NCC in a modified transwell assay setup.
(A) Schematic illustration of the “long-term” transwell migration assay. In the beginning, NCC were plated into the insert of the transwell and treated with potential toxicants. In comparison to the standard transwell set-up, the lower medium compartment was initially not supplemented with FBS. In order to ensure a uniform concentration, picoxystrobin was added to both compartments. Cells were then incubated for 18 h (in the absence of a migration stimulus). Afterwards, 5% FBS was added to the lower compartment, to initiate NCC migration through the membrane pores. After 6 h, the number of cells that reached the downward surface of the membrane was quantified. (B) Result of concentration-dependent picoxystrobin testing in galactose medium in the long-term transwell assay. Cytochalasin D (200 nM) was used as positive control for “inhibited” migration (CytoD). “Unstimulated” migration (no FBS) is also shown. The dotted line at 75% indicates the threshold for inhibited migration. Data are expressed as means ± SEM from 3 independent biological experiments.
(also on this page, place not known: concentration -dependent long -term dott ed -4Ctrl Transwell migration [% of control ± SEM] CytoDBMC25 Picoxystrobin) […]

neural crest cells (NCC) [2] = assay: Seahorse oxygen consumption rate (mitochondrial stress test); type: cell-based, human
Experimental: The Seahorse bioanalyzer simultaneously measures cellular oxygen consumption rates (OCR) and extracellular acidification rates (ECAR). Therefore, NCCs were seeded at least two days prior to the assays at a density of 80,000 cells/well on Seahorse XF96 V3 PS Cell Culture Microplates (Agilent, Santa Clara, CA, USA) in either glucose medium or galactose medium. After 24 h, the medium was exchanged. For the real-time ATP production rate and mitochondrial stress assay, the cartridge was hydrated at 0% CO2 and 37 °C, and the seahorse was turned on to stabilize the temperature one day prior. The medium was changed to Seahorse XF DMEM Medium (Agilent, Santa Clara, CA, USA) supplemented with 2 mM L-glutamine, 1 mM pyruvate and 18 mM glucose or galactose 1 h before the start of the assays. Directly before the start of the assay, the medium was exchanged again. The sensor cartridge was loaded with the test compounds anchored to the BMC10 (V) of the cMINC screen and the recommended concentrations of calibration compounds for a mitochondrial stress test. These were 5 μM oligomycin, 15 μM carbonyl cyanide p-trifluoro methoxyphenylhydrazone (FCCP) and 5 μM rotenone plus 5 μM antimycin A. Additionally, 1 μg/mL H-33342 was added to the rotenone and antimycin A injection to perform afterwards a cell count (Cellomics, Waltham, MA, USA), to which the data were normalized. Six technical replicates were used for control conditions, and three technical replicates were used for other samples. The software Seahorse Analytics (Agilent, Santa Clara, CA, USA) was used for the evaluation (https://seahorseanalytics.agilent.com (accessed on 30 October 2024)).

[3] = Estimate of maximal tolerable/acceptable exposure; set-up: species or system human; conditions: per day; LOEL with safety factor of 100, same as ADI of FAO/WHO 2012 report
Experimental: An estimate of the maximal external exposure was obtained as the next step of the study. We used two different approaches, based on (i) setting the acceptable daily intake as the upper limit and (ii) referring to the no-observed-effect level (NOEL) in an animal study (detailed in Figure 7A). We concluded from both approaches that a plausible upper daily tolerated threshold is 0.09 mg/kg. This value was used in a physiologically based kinetic (PBK) model to obtain concentration time data for different tissues in mothers and their fetus. Assuming a repeated daily exposure, the maximal maternal plasma concentrations were predicted to be in the 200–300 nM range. The maximal steady-state fetal brain concentrations were predicted to be in the 100 nM range (5th and 95th percentiles for exposure in the population of 100 subjects were 60–190 nM) (Figure 7B). […] Next, we used some advanced assays to obtain a better understanding of the potency range of picoxystrobin when used in different experimental setups. […]
Figure 7 Comparison of internal exposure estimates and primary effect potency. […] Data are expressed as means ± SEM from three independent biological experiments. ^# LOEL of animal study is based on a 90-day dog study (REF: https://www.fao.org/3/i3111e/i3111e.pdf (accessed on 15 June 2024)). *^,§ There is also an old (no longer valid) value by EFSA of 0.043 mg/kg/day from the year 2004 [71]. […]

CO/C=C(/C(=O)OC)c1ccccc1COc1cccc(C(F)(F)F)n1 [Picoxystrobin, picoxystrobin]
concentration range at which migration was inhibited (neural crest cells (NCC) [1]; 18 h pre-treatment + 6 h migration): ~600 nM | BMC25 (neural crest cells (NCC) [1]; galactose medium, 18 h pre-exposure + 6 h migration): 0.6 µM | lowering of OCR POD by 24 h pre-treatment (neural crest cells (NCC) [2]; 24 h pre-treatment vs acute exposure): 10 fold | BMC25 (OCR), POD (neural crest cells (NCC) [2]; 24 h pre-treatment, galactose medium): 0.4 µM | upper daily tolerated threshold / estimate of max. exposure [tolerable/acceptable] [3]: 0.09 mg/kg
